Broadly, the EC50 is the concentration needed to bring the measured effect to its halfway point. For orientation: CC50 means the concentration at which the toxic effect on the cells reaches its halfway point. Low values mean greater toxicity to the cells, high ones lower toxicity to the cells.

Structures are written as SMILES. Bounds are passed on as bounds.

Results on 13 molecules are retold here after patent publication US11505543B2, “4-oxo-3,4-dihydroquinazoline compounds as inhibitors of human immunodeficiency virus replication” (VIIV HEALTHCARE UK (NO.5) LIMITED, priority 2018, dated 2022).

The subject of data set [1] is recombinant NL4-3 virus (nef section replaced with Renilla luciferase gene) in MT-2 cells. Put plainly: HIV cell culture assay (antiviral activity, luciferase readout). The note with it: serial dilutions of compound. Format: cell-based. The method, boiled down:
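EC50 was derived by median-effect curve fitting of luciferase activity. The signal comes from MT-2 cells infected for 4–5 days with 293T-produced NL4-3 reporter virus, nef partly replaced by Renilla luciferase, in the presence of serially diluted compound.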

Data set [2] is described as follows: Compound cytotoxicity, XTT-based colorimetric assay. It counts as cell-based. The note with it: human, uninfected MT2 cells, day 4, XTT. The method, boiled down:
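Run under the antiviral-assay protocol but without virus. Viability was read on day 4 and CC50 values were derived from the readout.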
For orientation: Tetrazolium assays rely on reduction of a dye to a coloured formazan, in cell work by metabolically active cells.

Where [3] appears, read: Renilla, NL43, MT-2 cells infected for 4-5 days with recombinant NL4-3 Renilla luciferase virus.

On to `Cn1nc(NS(C)(=O)=O)c2c(Cl)ccc(-n3c([C@H](Cc4cc(F)cc(F)c4)NC(=O)Cn4nc(C(F)F)c5c4C(F)(F)[C@@H]4C[C@H]54)nc4cc(-c5cc(F)cc(F)c5)ccc4c3=O)c21` (atropisomer, axis not shown; (aR)) [Example 103, N-((S)-1-(3-(4-chloro-1-methyl-3-(methylsulfonamido)-1H-indazol-7-yl)-7-(3,5-difluorophenyl)-4-oxo-3,4-dihydroquinazolin-2-yl)-2-(3,5-difluorophenyl)ethyl)-2-((3bS,4aR)-3-(difluoromethyl)-5,5-difluoro-3b,4,4a,5-tetrahydro-1H-cyclopropa[3,4]cyclopenta[1,2-c]pyrazol-1-yl)acetamide], for which the EC50 in data set [1] (setting [3]) was found to be 0.88 nM. The same molecule registered a cytotoxic concentration (CC50) at 4 day in data set [2] of over 1000 nM.
On to `Cn1nc(NS(C)(=O)=O)c2c(Cl)ccc(-n3c([C@H](Cc4cc(F)cc(F)c4)NC(=O)Cn4nc(C(F)F)c5c4C(F)(F)[C@@H]4C[C@H]54)nc4cc(-c5ccncc5)ccc4c3=O)c21` (atropisomer, axis not shown; (aR)) [Example 118, N-((S)-1-(3-(4-chloro-1-methyl-3-(methylsulfonamido)-1H-indazol-7-yl)-4-oxo-7-(pyridin-4-yl)-3,4-dihydroquinazolin-2-yl)-2-(3,5-difluorophenyl)ethyl)-2-((3bS,4aR)-3-(difluoromethyl)-5,5-difluoro-3b,4,4a,5-tetrahydro-1H-cyclopropa[3,4]cyclopenta[1,2-c]pyrazol-1-yl)acetamide], for which the EC50 in data set [1] (setting [3]) worked out at 0.16 nM. Besides, in data set [2], the CC50 at 4 day was over 500 nM.
Taken in the same sequence, the figures for `CS(=O)(=O)Nc1nn(CC(F)(F)F)c2c(-n3c([C@H](Cc4cc(F)cc(F)c4)NC(=O)Cn4nc(C(F)F)c5c4C(F)(F)[C@@H]4C[C@H]54)nc4cc(-c5ncccn5)ccc4c3=O)ccc(Cl)c12` [Example 163, N-((S)-1-(3-(4-chloro-3-(methylsulfonamido)-1-(2,2,2-trifluoroethyl)-1H-indazol-7-yl)-4-oxo-7-(pyrimidin-2-yl)-3,4-dihydroquinazolin-2-yl)-2-(3,5-difluorophenyl)ethyl)-2-((3bS,4aR)-3-(difluoromethyl)-5,5-difluoro-3b,4,4a,5-tetrahydro-1H-cyclopropa[3,4]cyclopenta[1,2-c]pyrazol-1-yl)acetamide] were 0.046 nM and over 500 nM.
Regarding `Cc1cccc(C)c1-c1ccc2c(=O)n(-c3ccc(Cl)c4c(NS(C)(=O)=O)nn(C)c34)c([C@H](Cc3cc(F)cc(F)c3)NC(=O)Cn3nc(C(F)F)c4c3C(F)(F)[C@@H]3C[C@H]43)nc2c1` (atropisomer, axis not shown; (aR)) [Example 26, N-((S)-1-(3-(4-chloro-1-methyl-3-(methylsulfonamido)-1H-indazol-7-yl)-7-(2,6-dimethylphenyl)-4-oxo-3,4-dihydroquinazolin-2-yl)-2-(3,5-difluorophenyl)ethyl)-2-((3bS,4aR)-3-(difluoromethyl)-5,5-difluoro-3b,4,4a,5-tetrahydro-1H-cyclopropa[3,4]cyclopenta[1,2-c]pyrazol-1-yl)acetamide], the EC50 in data set [1] (setting [3]) is 0.72 nM. The CC50 at 4 day in data set [2] was over 1000 nM.
Turning to `Cn1nc(NS(C)(=O)=O)c2c(Cl)ccc(-n3c([C@H](Cc4cc(F)cc(F)c4)NC(=O)Cn4nc(C(F)F)c5c4C(F)(F)[C@@H]4C[C@H]54)nc4cc(-c5ccc(S(=O)(=O)N6CCOCC6)cc5)ccc4c3=O)c21` (atropisomer, axis not shown; (aR)) [Example 91, N-((S)-1-(3-(4-chloro-1-methyl-3-(methylsulfonamido)-1H-indazol-7-yl)-7-(4-(morpholinosulfonyl)phenyl)-4-oxo-3,4-dihydroquinazolin-2-yl)-2-(3,5-difluorophenyl)ethyl)-2-((3bS,4aR)-3-(difluoromethyl)-5,5-difluoro-3b,4,4a,5-tetrahydro-1H-cyclopropa[3,4]cyclopenta[1,2-c]pyrazol-1-yl)acetamide], the EC50 in data set [1] (setting [3]) was 0.39 nM. The CC50 at 4 day in data set [2] was over 1000 nM.
In the same order, the values of `Cn1nc(NS(C)(=O)=O)c2c(Cl)ccc(-n3c([C@H](Cc4cc(F)cc(F)c4)NC(=O)Cn4nc(C(F)F)c5c4C(F)(F)[C@@H]4C[C@H]54)nc4cc(-c5cnccn5)ccc4c3=O)c21` (atropisomer, axis not shown; (aR)) [Example 39, N-((S)-1-(3-(4-chloro-1-methyl-3-(methylsulfonamido)-1H-indazol-7-yl)-4-oxo-7-(pyrazin-2-yl)-3,4-dihydroquinazolin-2-yl)-2-(3,5-difluorophenyl)ethyl)-2-((3bS,4aR)-3-(difluoromethyl)-5,5-difluoro-3b,4,4a,5-tetrahydro-1H-cyclopropa[3,4]cyclopenta[1,2-c]pyrazol-1-yl)acetamide] are 0.052 nM and over 1000 nM.
In the same order, the values of `Cn1nc(NS(C)(=O)=O)c2c(Cl)ccc(-n3c([C@H](Cc4cc(F)cc(F)c4)NC(=O)Cn4nc(C(F)F)c5c4C(F)(F)[C@@H]4C[C@H]54)nc4cc(-c5ccc(F)c(C#N)c5F)ccc4c3=O)c21` [Example 170, N-((S)-1-(3-(4-chloro-1-methyl-3-(methylsulfonamido)-1H-indazol-7-yl)-7-(3-cyano-2,4-difluorophenyl)-4-oxo-3,4-dihydroquinazolin-2-yl)-2-(3,5-difluorophenyl)ethyl)-2-((3bS,4aR)-3-(difluoromethyl)-5,5-difluoro-3b,4,4a,5-tetrahydro-1H-cyclopropa[3,4]cyclopenta[1,2-c]pyrazol-1-yl)acetamide] are 0.58 nM and over 500 nM.
As for `O=C(Cn1ccc(C2CC2)n1)N[C@@H](Cc1cc(F)cc(F)c1)c1nc2cc(-c3c(Cl)cccc3Cl)ccc2c(=O)n1-c1ccc(S(=O)(=O)N2CCOCC2)cc1` [Example 114, (S)-2-(3-cyclopropyl-1H-pyrazol-1-yl)-N-(1-(7-(2,6-dichlorophenyl)-3-(4-(morpholinosulfonyl)phenyl)-4-oxo-3,4-dihydroquinazolin-2-yl)-2-(3,5-difluorophenyl)ethyl)acetamide], the 50% effective concentration (EC50) in data set [1] (setting [3]) was found to be 15 nM. Besides, the CC50 at 4 day in data set [2] is over 1000 nM.
As to `CC(C(=O)N[C@@H](Cc1cc(F)cc(F)c1)c1nc2cc(-c3ccccc3F)ccc2c(=O)n1-c1ccc(Cl)c2c(NS(=O)(=O)C3CC3)nn(CC(F)F)c12)n1ccc(C2CC2)n1` (single isomer, unassigned) [Example 133], the concentration for a half-maximal effect (EC50) in data set [1] (MT-2 cells infected for 4-5 days with recombinant NL4-3 Renilla luciferase virus) was 1.6 nM. The CC50 at 4 day in data set [2] is over 500 nM.
Regarding `Cn1nc(NS(C)(=O)=O)c2c(Cl)ccc(-n3c([C@H](Cc4cc(F)cc(F)c4)NC(=O)Cn4nc(C(F)F)c5c4C(F)(F)[C@@H]4C[C@H]54)nc4cc(-c5ccc(C(=O)O)c(Cl)c5)ccc4c3=O)c21` (atropisomer, axis not shown; (aR)) [Example 75, 2-chloro-4-(3-(4-chloro-1-methyl-3-(methylsulfonamido)-1H-indazol-7-yl)-2-((S)-1-(2-((3bS,4aR)-3-(difluoromethyl)-5,5-difluoro-3b,4,4a,5-tetrahydro-1H-cyclopropa[3,4]cyclopenta[1,2-c]pyrazol-1-yl)acetamido)-2-(3,5-difluorophenyl)ethyl)-4-oxo-3,4-dihydroquinazolin-7-yl)benzoic acid], the EC50 in data set [1] (setting [3]) is 29 nM. Also, the CC50 at 4 day in data set [2] was over 1000 nM.
In the same order, the values of `Cn1nc(NS(C)(=O)=O)c2c(Cl)ccc(-n3c([C@H](Cc4cc(F)cc(F)c4)NC(=O)Cn4nc(C(F)F)c5c4C(F)(F)[C@@H]4C[C@H]54)nc4cc(-c5ccccc5Oc5ccccc5)ccc4c3=O)c21` (atropisomer, axis not shown; (aR)) [Example 107, N-((S)-1-(3-(4-chloro-1-methyl-3-(methylsulfonamido)-1H-indazol-7-yl)-4-oxo-7-(2-phenoxyphenyl)-3,4-dihydroquinazolin-2-yl)-2-(3,5-difluorophenyl)ethyl)-2-((3bS,4aR)-3-(difluoromethyl)-5,5-difluoro-3b,4,4a,5-tetrahydro-1H-cyclopropa[3,4]cyclopenta[1,2-c]pyrazol-1-yl)acetamide] are 10 nM and over 1000 nM.
As to `Cn1nc(NS(C)(=O)=O)c2c(Cl)ccc(-n3c([C@H](Cc4cc(F)cc(F)c4)NC(=O)Cn4nc(C(F)F)c5c4C(F)(F)[C@@H]4C[C@H]54)nc4cc(-c5ccc(F)cc5)ccc4c3=O)c21` [Example 193, N-((S)-1-(3-(4-chloro-1-methyl-3-(methylsulfonamido)-1H-indazol-7-yl)-7-(4-fluorophenyl)-4-oxo-3,4-dihydroquinazolin-2-yl)-2-(3,5-difluorophenyl)ethyl)-2-((3bS,4aR)-3-(difluoromethyl)-5,5-difluoro-3b,4,4a,5-tetrahydro-1H-cyclopropa[3,4]cyclopenta[1,2-c]pyrazol-1-yl)acetamide], the EC50 in data set [1] (setting [3]) is 0.95 nM. The CC50 at 4 day in data set [2] was over 1000 nM.
Taken in the same sequence, the figures for `COc1cccc(-c2ccc3c(=O)n(-c4ccc(Cl)c5c(NS(C)(=O)=O)nn(C)c45)c([C@H](Cc4cc(F)cc(F)c4)NC(=O)Cn4nc(C(F)F)c5c4C(F)(F)[C@@H]4C[C@H]54)nc3c2)n1` (atropisomer, axis not shown; (aR)) [Example 46, N-((S)-1-(3-(4-chloro-1-methyl-3-(methylsulfonamido)-1H-indazol-7-yl)-7-(6-methoxypyridin-2-yl)-4-oxo-3,4-dihydroquinazolin-2-yl)-2-(3,5-difluorophenyl)ethyl)-2-((3bS,4aR)-3-(difluoromethyl)-5,5-difluoro-3b,4,4a,5-tetrahydro-1H-cyclopropa[3,4]cyclopenta[1,2-c]pyrazol-1-yl)acetamide] were 0.56 nM and over 1000 nM.
